Columns and labels:
[1] = xn = mol fraction of the nth substance listed; details: 101 kPa, Liquid, Vibrating tube method
[2] = refractive index (Na D-line) (dimensionless); xn = mol fraction of the nth substance listed; details: 101 kPa, Liquid, Standard Abbe refractometry

C1CCC(NC2CCCCC2)CC1 [N-cyclohexylcyclohexanamine] + CCCCCO
Details	mass density, [1] [kg/m3]	refractive index, [2]
288.15 K, x2 = 0	915.498	1.48636
288.15 K, x2 = 0.0525	913.936	1.48486
288.15 K, x2 = 0.1	912.365	1.48356
288.15 K, x2 = 0.2006	908.415	1.47999
288.15 K, x2 = 0.2999	903.722	1.47587
288.15 K, x2 = 0.3985	898.063	1.47109
288.15 K, x2 = 0.5001	890.925	1.46523
288.15 K, x2 = 0.5999	882.166	1.45834
288.15 K, x2 = 0.6992	871.226	1.45002
288.15 K, x2 = 0.7993	857.281	1.43976
288.15 K, x2 = 0.8997	839.76	1.42718
288.15 K, x2 = 0.9495	829.611	1.41998
293.15 K, x2 = 0	911.705	1.48416
293.15 K, x2 = 0.0525	910.13	1.48266
293.15 K, x2 = 0.1	908.547	1.48135
293.15 K, x2 = 0.2006	904.561	1.47776
293.15 K, x2 = 0.2999	899.824	1.47364
293.15 K, x2 = 0.3985	894.123	1.46884
293.15 K, x2 = 0.5001	886.952	1.46298
293.15 K, x2 = 0.5999	878.178	1.4561
293.15 K, x2 = 0.6992	867.264	1.4478
293.15 K, x2 = 0.7993	853.399	1.4376
293.15 K, x2 = 0.8997	835.998	1.4251
293.15 K, x2 = 0.9495	825.915	1.41796
298.15 K, x2 = 0	907.923	1.48198
298.15 K, x2 = 0.0525	906.333	1.48047
298.15 K, x2 = 0.1	904.733	1.47916
298.15 K, x2 = 0.2006	900.708	1.47554
298.15 K, x2 = 0.2999	895.929	1.47141
298.15 K, x2 = 0.3985	890.185	1.4666
298.15 K, x2 = 0.5001	882.98	1.46073
298.15 K, x2 = 0.5999	874.191	1.45386
298.15 K, x2 = 0.6992	863.3	1.44555
298.15 K, x2 = 0.7993	849.507	1.43542
298.15 K, x2 = 0.8997	832.22	1.42299
298.15 K, x2 = 0.9495	822.199	1.41591
303.15 K, x2 = 0	904.144	1.47978
303.15 K, x2 = 0.0525	902.538	1.47828
303.15 K, x2 = 0.1	900.921	1.47694
303.15 K, x2 = 0.2006	896.855	1.47333
303.15 K, x2 = 0.2999	892.033	1.46918
303.15 K, x2 = 0.3985	886.249	1.46437
303.15 K, x2 = 0.5001	879.007	1.4585
303.15 K, x2 = 0.5999	870.203	1.45162
303.15 K, x2 = 0.6992	859.33	1.44334
303.15 K, x2 = 0.7993	845.602	1.43327
303.15 K, x2 = 0.8997	828.423	1.4209
303.15 K, x2 = 0.9495	818.461	1.41383
308.15 K, x2 = 0	900.372	1.47761
308.15 K, x2 = 0.0525	898.746	1.47608
308.15 K, x2 = 0.1	897.111	1.47475
308.15 K, x2 = 0.2006	893.001	1.47113
308.15 K, x2 = 0.2999	888.135	1.46696
308.15 K, x2 = 0.3985	882.309	1.46214
308.15 K, x2 = 0.5001	875.031	1.45627
308.15 K, x2 = 0.5999	866.208	1.44937
308.15 K, x2 = 0.6992	855.348	1.44113
308.15 K, x2 = 0.7993	841.678	1.43108
308.15 K, x2 = 0.8997	824.599	1.41881
308.15 K, x2 = 0.9495	814.694	1.41175
313.15 K, x2 = 0	896.608	1.47562
313.15 K, x2 = 0.0525	894.957	1.47406
313.15 K, x2 = 0.1	893.301	1.47258
313.15 K, x2 = 0.2006	889.146	1.4689
313.15 K, x2 = 0.2999	884.235	1.46472
313.15 K, x2 = 0.3985	878.364	1.45985
313.15 K, x2 = 0.5001	871.049	1.45396
313.15 K, x2 = 0.5999	862.207	1.44702
313.15 K, x2 = 0.6992	851.354	1.43878
313.15 K, x2 = 0.7993	837.734	1.42876
313.15 K, x2 = 0.8997	820.749	1.41655
313.15 K, x2 = 0.9495	810.896	1.40963
318.15 K, x2 = 0	892.847	1.47347
318.15 K, x2 = 0.0525	891.168	1.4719
318.15 K, x2 = 0.1	889.492	1.47041
318.15 K, x2 = 0.2006	885.287	1.46671
318.15 K, x2 = 0.2999	880.327	1.46251
318.15 K, x2 = 0.3985	874.411	1.45762
318.15 K, x2 = 0.5001	867.056	1.45172
318.15 K, x2 = 0.5999	858.189	1.4448
318.15 K, x2 = 0.6992	847.34	1.43659
318.15 K, x2 = 0.7993	833.766	1.42658
318.15 K, x2 = 0.8997	816.864	1.41445
318.15 K, x2 = 0.9495	807.06	1.40753
323.15 K, x2 = 0	889.089	1.47134
323.15 K, x2 = 0.0525	887.381	1.46975
323.15 K, x2 = 0.1	885.679	1.46826
323.15 K, x2 = 0.2006	881.423	1.46457
323.15 K, x2 = 0.2999	876.412	1.46034
323.15 K, x2 = 0.3985	870.446	1.45547
323.15 K, x2 = 0.5001	863.048	1.44954
323.15 K, x2 = 0.5999	854.154	1.44263
323.15 K, x2 = 0.6992	843.305	1.43439
323.15 K, x2 = 0.7993	829.767	1.42439
323.15 K, x2 = 0.8997	812.943	1.4123
323.15 K, x2 = 0.9495	803.186	1.40539

C1CCC(NC2CCCCC2)CC1 [N-cyclohexylcyclohexanamine] + CC(C)(C)O
Details	mass density, 303.15 K [kg/m3]	mass density, 308.15 K [kg/m3]	mass density, 313.15 K [kg/m3]	mass density, 318.15 K [kg/m3]	mass density, 323.15 K [kg/m3]	refractive index, 303.15 K	refractive index, 308.15 K	refractive index, 313.15 K	refractive index, 318.15 K	refractive index, 323.15 K
[1], x2 = 0	904.144	900.372	896.608	892.847	889.089	–	–	–	–	–
[1], x2 = 0.1	899.362	895.452	891.533	887.611	883.684	–	–	–	–	–
[1], x2 = 0.199	893.462	889.433	885.384	881.326	877.25	–	–	–	–	–
[1], x2 = 0.289	887.197	883.071	878.917	874.742	870.544	–	–	–	–	–
[1], x2 = 0.4	878.023	873.772	869.49	865.171	860.821	–	–	–	–	–
[1], x2 = 0.485	869.715	865.366	860.973	856.539	852.063	–	–	–	–	–
[1], x2 = 0.6	856.549	852.061	847.522	842.928	838.281	–	–	–	–	–
[1], x2 = 0.698	843.066	838.44	833.751	829.003	824.196	–	–	–	–	–
[1], x2 = 0.801	825.644	820.845	815.974	811.036	806.029	–	–	–	–	–
[1], x2 = 0.849	815.948	811.061	806.1	801.065	795.955	–	–	–	–	–
[1], x2 = 0.9	804.266	799.276	794.206	789.061	783.837	–	–	–	–	–
[2], x2 = 0	–	–	–	–	–	1.47978	1.47761	1.47562	1.47347	1.47134
[2], x2 = 0.1	–	–	–	–	–	1.47584	1.47362	1.47142	1.46916	1.467
[2], x2 = 0.199	–	–	–	–	–	1.47107	1.46875	1.46639	1.4641	1.46188
[2], x2 = 0.289	–	–	–	–	–	1.46609	1.46373	1.46133	1.45899	1.45674
[2], x2 = 0.4	–	–	–	–	–	1.45896	1.4565	1.45403	1.45163	1.44932
[2], x2 = 0.485	–	–	–	–	–	1.45238	1.44994	1.44742	1.44498	1.44272
[2], x2 = 0.6	–	–	–	–	–	1.4423	1.43973	1.43717	1.43461	1.43215
[2], x2 = 0.698	–	–	–	–	–	1.43185	1.42927	1.42663	1.42401	1.42155
[2], x2 = 0.801	–	–	–	–	–	1.41877	1.41609	1.41336	1.41073	1.4081
[2], x2 = 0.849	–	–	–	–	–	1.41128	1.40862	1.40587	1.40316	1.40048
[2], x2 = 0.9	–	–	–	–	–	1.40275	1.40004	1.39727	1.39449	1.39193
